The subject of the data set is Sprague-Dawley rats. The settings on record: rat.

Protocol: Brief description of the protocol: 16 male Sprague-Dawley rats weighting 100 to 125 g were randomly assigned to 4 groups (4 rats per group (Gp)): Gp1, Phosphate buffer solution (PBS); Gp2, 0.02% benzalkonium chloride (BAK); Gp3, Xalatan®; Gp4, Latanoprost Emulsion. Following general and local anesthesia with ketamine/xylazine and topical Oxybucaïne, respectively, the upper part of the right eye cornea of each rat was scraped with a surgical scalpel following an application of 50 μl of 50% ethanol solution. The upper corneal and limbal epithelia were removed (at day D0). One drop of Tobrex was instilled immediately after the scraping. 2 and 5 hours post scraping one drop of the different test articles were applied onto the cornea of the right eye. These latter instillations were repeated every day for 4 days, and corneal evaluation with an in vivo confocal microscope (IVCM-HRT) was performed on day 4 after the last instillation. At the end of the experimental procedure (the total duration of the treatment is 5 days; from day D0 to D4), the animals were sacrificed and the eyes harvested to characterize the histological organisation of the treated cornea.

On to “benzalkonium chloride [0.02% BAK solution]”, for which the “IVCM (in vivo confocal microscopy) of superficial epithelium: scar tissue / hypereflectivity” value was “corneal edema and tissue disorganisation”. The “Hematoxylin-eosin staining of treated cornea (epithelium thinning, edema, inflammatory infiltrates)” value (in vivo) was “edemas and inflammatory infiltrates are particularly obvious”.

These data come from patent US9555045B2, “Use of prostaglandins F2alpha and analogues for the healing of corneal and conjunctival lesions” (SANTEN SAS, priority 2009, dated 2017).
